Reference: patent US20100267697A1, “ION CHANNEL MODULATORS” (Wyeth, priority 2006, published 2010)
Structures can show the parent of a compound that is named as a salt. Where two headings read alike, the source gives them in different places.

Target: T1, Cav2.2 (Homo sapiens, UniProt Q00975)
T1 construct: expressed in transfected cells; host or cells: HEK-293T/17 (transient, FuGENE 6)
Assay: HEK assay (whole-cell patch clamp, transiently transfected HEK-293T/17 cells, pulses P1 and P5)
Type: cell-based
Details: holding potential −100 mV
Experimental: HEK-293T/17 cells were transiently transfected in a similar manner as described in FuGENE 6 Package Insert Version 7, April 2002, Roche Applied Science, Indianapolis, Ind. The cells were plated at 2.5×10^5 cells in 2 mL in a 6-well plate, incubated for one night, and achieved a ˜30-40% confluence. In a small sterile tube, sufficient serum-free medium was added as diluent for FuGENE Transfection Reagent (Roche Applied Science, Indianapolis, Ind.) to a total volume of 100 μL. To this medium was added 3 μL of FuGENE 6 Reagent. The mixture was tapped gently to mix. To the prediluted FuGENE 6 Reagent was added 2 μg of DNA solution (0.8-2.0 μg/μL). The DNA/Fugene 6 mixture was gently pipeted to mix the contents and incubated for about 15 minutes at room temperature. The complex mixture was then added to the HEK-293T/17 cells, distributed around the well, and swirled to ensure even dispersal. The cells were returned to the incubator for 24 hours. The transfected cells were then replated at density 2.5×10^5 in a 35 mm dish with 5 glass coverslips and grew in low serum (1%) media for 24 hours. Coverslips with isolated cells were then transferred into a chamber, and calcium channel (e.g., L-type, N-type, etc.) current or other currents for counter screening were recorded from the transiently transfected HEK-293T/17 cells.
The whole-cell voltage clamp configuration of the patch clamp technique was employed to evaluate voltage-dependent calcium currents essentially as described by Thompson and Wong (1991), J. Physiol., 439: 671-689, the entire disclosure of which is herein incorporated by reference. To record calcium channel (e.g., L-type, N-type, etc.) currents for evaluation of inhibitory potency of compounds (steady-state concentration-response analysis), five pulses of 20-30 ms voltage steps to about +10 mV (the peak of the current voltage relationship) were delivered at five Hz every 30 second from a holding potential at −100 mV. In order to obtain an estimate of the degree of use-dependent block of the test compounds, IC50 values were determined at the first and fifth pulse of the train (P1 and P5, respectively, in Table 2). Compound evaluations were carried out essentially as described by Sah D. W. and Bean B. P. (1994), Mol. Pharmacol., 45:84-92, the entire disclosure of which is herein incorporated by reference.

[1] = fifth pulse (P5) of 5 Hz train, read-out: HEK Cav2.2 P5 IC50
[2] = first pulse (P1) of 5 Hz train, read-out: HEK Cav2.2 P1 IC50

T1 sequence (Q00975 whole entry): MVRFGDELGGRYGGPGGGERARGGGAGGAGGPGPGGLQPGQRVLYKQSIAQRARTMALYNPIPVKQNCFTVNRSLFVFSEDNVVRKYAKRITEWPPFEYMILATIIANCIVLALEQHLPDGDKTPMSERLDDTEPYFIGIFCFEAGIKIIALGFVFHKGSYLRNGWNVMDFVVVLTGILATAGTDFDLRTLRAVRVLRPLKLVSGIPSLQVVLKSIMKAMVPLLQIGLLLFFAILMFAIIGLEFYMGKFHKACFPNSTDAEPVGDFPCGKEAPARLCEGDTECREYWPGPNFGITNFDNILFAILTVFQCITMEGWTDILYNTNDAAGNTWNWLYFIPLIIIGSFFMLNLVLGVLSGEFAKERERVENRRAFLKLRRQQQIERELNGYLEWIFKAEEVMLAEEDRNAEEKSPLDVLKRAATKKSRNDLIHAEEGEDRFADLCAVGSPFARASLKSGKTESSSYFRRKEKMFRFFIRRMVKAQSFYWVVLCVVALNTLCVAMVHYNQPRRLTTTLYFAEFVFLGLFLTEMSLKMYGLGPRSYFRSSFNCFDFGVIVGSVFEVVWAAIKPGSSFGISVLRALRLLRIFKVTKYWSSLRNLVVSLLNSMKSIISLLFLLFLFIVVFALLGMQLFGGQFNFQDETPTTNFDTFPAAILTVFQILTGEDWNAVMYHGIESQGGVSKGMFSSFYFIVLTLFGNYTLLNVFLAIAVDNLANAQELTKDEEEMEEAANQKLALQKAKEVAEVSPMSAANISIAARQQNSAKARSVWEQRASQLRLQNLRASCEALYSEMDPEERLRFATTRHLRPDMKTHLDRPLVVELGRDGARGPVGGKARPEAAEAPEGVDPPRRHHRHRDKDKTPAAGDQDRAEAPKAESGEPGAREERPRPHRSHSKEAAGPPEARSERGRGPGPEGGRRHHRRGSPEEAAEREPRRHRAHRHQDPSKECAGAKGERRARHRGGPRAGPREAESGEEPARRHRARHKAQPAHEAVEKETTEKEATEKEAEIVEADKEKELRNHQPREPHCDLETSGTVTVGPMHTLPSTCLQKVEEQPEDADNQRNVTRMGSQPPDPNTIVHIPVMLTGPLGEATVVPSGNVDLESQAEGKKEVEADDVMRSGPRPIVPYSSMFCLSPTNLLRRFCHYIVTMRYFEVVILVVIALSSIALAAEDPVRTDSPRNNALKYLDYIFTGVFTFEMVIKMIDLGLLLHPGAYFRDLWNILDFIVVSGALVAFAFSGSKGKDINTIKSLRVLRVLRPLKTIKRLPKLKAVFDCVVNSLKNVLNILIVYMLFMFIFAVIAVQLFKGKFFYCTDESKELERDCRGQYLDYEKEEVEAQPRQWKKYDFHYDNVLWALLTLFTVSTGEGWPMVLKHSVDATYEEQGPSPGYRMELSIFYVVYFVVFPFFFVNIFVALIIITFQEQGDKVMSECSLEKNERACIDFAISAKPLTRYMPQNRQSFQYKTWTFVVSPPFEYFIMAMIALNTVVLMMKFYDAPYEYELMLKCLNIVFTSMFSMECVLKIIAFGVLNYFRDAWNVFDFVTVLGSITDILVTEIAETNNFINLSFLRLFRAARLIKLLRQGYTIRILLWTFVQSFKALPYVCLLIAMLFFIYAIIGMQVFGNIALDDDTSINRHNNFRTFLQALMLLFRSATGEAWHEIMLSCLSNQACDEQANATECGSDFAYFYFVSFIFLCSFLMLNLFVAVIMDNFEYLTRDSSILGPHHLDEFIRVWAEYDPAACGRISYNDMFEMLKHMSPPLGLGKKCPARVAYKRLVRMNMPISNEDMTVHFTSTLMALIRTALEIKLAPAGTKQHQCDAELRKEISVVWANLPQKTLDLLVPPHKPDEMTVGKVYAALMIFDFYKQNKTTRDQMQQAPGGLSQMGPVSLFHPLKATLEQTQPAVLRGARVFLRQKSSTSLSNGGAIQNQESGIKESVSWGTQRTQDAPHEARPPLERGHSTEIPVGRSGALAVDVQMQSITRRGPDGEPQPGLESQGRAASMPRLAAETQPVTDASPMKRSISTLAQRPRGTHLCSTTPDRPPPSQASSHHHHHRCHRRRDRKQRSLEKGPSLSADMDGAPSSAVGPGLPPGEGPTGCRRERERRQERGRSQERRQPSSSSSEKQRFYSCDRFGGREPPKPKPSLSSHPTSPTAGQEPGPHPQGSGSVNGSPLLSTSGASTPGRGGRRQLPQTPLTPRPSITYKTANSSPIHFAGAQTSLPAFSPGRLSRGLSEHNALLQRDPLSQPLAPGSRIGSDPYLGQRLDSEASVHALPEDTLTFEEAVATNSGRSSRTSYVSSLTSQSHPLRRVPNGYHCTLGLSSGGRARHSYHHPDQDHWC
T1 sequence (P54284 whole entry partner): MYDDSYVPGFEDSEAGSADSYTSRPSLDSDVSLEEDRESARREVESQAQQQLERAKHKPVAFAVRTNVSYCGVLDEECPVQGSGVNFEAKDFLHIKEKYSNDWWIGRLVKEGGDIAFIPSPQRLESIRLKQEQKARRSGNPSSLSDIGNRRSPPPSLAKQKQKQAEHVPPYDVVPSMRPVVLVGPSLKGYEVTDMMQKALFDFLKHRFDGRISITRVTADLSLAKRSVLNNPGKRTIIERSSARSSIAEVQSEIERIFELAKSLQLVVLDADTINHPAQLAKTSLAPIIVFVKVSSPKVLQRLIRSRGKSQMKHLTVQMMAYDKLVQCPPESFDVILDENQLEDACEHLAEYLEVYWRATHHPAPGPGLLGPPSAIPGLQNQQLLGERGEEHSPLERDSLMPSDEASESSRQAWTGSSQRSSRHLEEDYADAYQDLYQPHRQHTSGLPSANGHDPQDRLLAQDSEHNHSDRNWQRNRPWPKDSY
T1 sequence (P54289 25-946 partner limits assumed): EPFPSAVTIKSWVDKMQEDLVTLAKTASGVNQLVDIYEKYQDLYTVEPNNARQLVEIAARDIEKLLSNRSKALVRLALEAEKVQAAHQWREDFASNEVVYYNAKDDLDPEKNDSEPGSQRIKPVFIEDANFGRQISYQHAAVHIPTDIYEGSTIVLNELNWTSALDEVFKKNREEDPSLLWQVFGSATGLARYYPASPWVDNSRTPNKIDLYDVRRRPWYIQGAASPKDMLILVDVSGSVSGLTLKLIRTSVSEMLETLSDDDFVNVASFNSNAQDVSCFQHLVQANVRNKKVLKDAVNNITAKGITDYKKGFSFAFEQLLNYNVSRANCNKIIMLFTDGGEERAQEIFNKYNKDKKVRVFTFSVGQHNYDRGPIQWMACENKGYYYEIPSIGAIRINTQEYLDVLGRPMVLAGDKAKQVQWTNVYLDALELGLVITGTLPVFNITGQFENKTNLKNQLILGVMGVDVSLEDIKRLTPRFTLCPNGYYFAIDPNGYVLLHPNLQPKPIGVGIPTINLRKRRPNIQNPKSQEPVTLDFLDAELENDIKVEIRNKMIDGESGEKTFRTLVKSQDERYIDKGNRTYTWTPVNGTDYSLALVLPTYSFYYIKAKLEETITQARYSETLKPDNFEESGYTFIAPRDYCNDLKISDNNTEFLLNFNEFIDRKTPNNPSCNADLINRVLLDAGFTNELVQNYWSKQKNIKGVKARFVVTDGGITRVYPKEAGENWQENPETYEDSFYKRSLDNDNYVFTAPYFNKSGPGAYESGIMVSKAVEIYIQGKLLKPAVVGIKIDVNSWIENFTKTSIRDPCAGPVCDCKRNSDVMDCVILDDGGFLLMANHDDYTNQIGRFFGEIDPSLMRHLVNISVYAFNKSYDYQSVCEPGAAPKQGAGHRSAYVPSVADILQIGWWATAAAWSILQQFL
T1 sequence (P54289 947-1103 partner limits assumed): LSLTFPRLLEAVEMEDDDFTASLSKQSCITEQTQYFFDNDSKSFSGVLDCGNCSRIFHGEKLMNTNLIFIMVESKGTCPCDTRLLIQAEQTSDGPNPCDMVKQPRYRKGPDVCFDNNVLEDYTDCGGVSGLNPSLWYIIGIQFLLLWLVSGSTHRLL

Row | SMILES | IC50 [1] [µM] | IC50 [2] [µM]
1 | CC(C)(C)C(=O)N(Cc1ccc(N2CC[C@H](Oc3ccccn3)C2)nc1)c1ccc(F)cc1 (stereo in doubt) [Compound 50, N-(4-Fluorophenyl)-2,2-dimethyl-N-{6-[3-(pyridin-2-yloxy)-pyrrolidin-1-yl]-pyridin-3-ylmethyl}-propionamide] | 0.8 | 3.7
2 | CC(C)(C)C(=O)N(Cc1cnc(N2CCCC2)s1)c1ccc(F)cc1 [Compound 1, N-(4-fluorophenyl)-2,2-dimethyl-N-(2-pyrrolidin-1-yl-thiazol-5-ylmethyl)-propionamide hydrochloride] | 8.3 | 20.3
3 | CCN(CC)c1cccc(CN(C(=O)C(C)(C)C)c2ccc(F)cc2)n1 [Compound 4, N-(6-diethylamino-pyridin-2-ylmethyl)-N-(4-fluorophenyl)-2,2-dimethyl-propionamide hydrochloride] | 0.8 | 2.9
4 | CCN(CC)c1ccc(CN(C(=O)C(C)(C)C)c2ccc(F)cc2)cc1 [Compound 5, N-(4-Diethylaminobenzyl)-N-(4-fluorophenyl)-2,2-dimethyl-propionamide hydrochloride] | 1.1 | 2.9
5 | CCN(c1cccc(CN(C(=O)C(C)(C)C)c2ccc(F)cc2)c1)C1CC1 [Compound 6, N-(3-(Cyclopropyl(ethyl)amino)-benzyl)-N-(4-fluorophenyl)-2,2-dimethyl-propionamide hydrochloride] | 1.5 | 6.2
6 | CCN(c1ccc(CN(C(=O)C2CCN(Cc3ccccc3)CC2)c2ccc(F)cc2)cn1)C1CC1 [Compound 12, 1-benzyl-piperidine-4-carboxylic acid [6-(Cyclopropyl(ethyl)amino)-pyridin-3-ylmethyl]-(4-fluorophenyl)-amide dihydrochloride] | 0.4 | 1
7 | CCN(c1ccc(CN(C(=O)CCC(C)C)c2ccc(F)cc2)cn1)C1CC1 [Compound 13, 4-methyl-pentanoic acid [6-(Cyclopropyl(ethyl)amino)-pyridin-3-ylmethyl]-(4-fluorophenyl)-amide hydrochloride] | 1.8 | 
8 | CCN(c1ccc(CN(C(=O)C2Cc3ccccc3CN2)c2ccc(F)cc2)cn1)C1CC1 (stereo not shown) [Compound 14, 1,2,3,4-tetrahydro-isoquinoline-3-carboxylic acid [6-(Cyclopropyl(ethyl)amino)-pyridin-3-ylmethyl]-(4-fluorophenyl)-amide dihydrochloride] | 0.6 | 10.1
9 | CCN(c1ccc(CN(C(=O)C2Cc3ccccc3CN2C)c2ccc(F)cc2)cn1)C1CC1 (stereo not shown) [Compound 15, 2-methyl-1,2,3,4-tetrahydro-isoquinoline-3-carboxylic acid [6-(Cyclopropyl(ethyl)amino)-pyridin-3-ylmethyl]-(4-fluorophenyl)-amide dihydrochloride] | 0.4 | 2.1
10 | CC(CC(=O)N(Cc1ccc(N(C)CCc2ccccn2)nc1)c1ccc(F)cc1)C(F)(F)F (stereo not shown) [Compound 23, 4,4,4-Trifluoro-N-(4-fluorophenyl)-3-methyl-N-{6-[methyl-(2-pyridin-2-yl-ethyl)-amino]-pyridin-3-ylmethyl}-butyramide] | 1.1 | 
11 | CCN(CC)c1ccc(CN(C(=O)C(C)(C)C)c2ccc(F)cc2C)cn1 [Compound 36, N-(6-Diethylamino-pyridin-3-ylmethyl)-N-(4-fluoro-2-methyl-phenyl)-2,2-dimethyl-propionamide] | 1.3 | 3.5
12 | CCN(CC)c1ccc(CN(C(=O)C(C)(C)C)c2ccccc2C(C)C)cn1 [Compound 37, N-(6-Diethylamino-pyridin-3-ylmethyl)-N-(2-isopropyl-phenyl)-2,2-dimethyl-propionamide] | 0.7 | 1.8
13 | CN(CCO)c1ccc(CN(C(=O)C(C)(C)C)c2ccc(F)cc2)cn1 [Compound 38, N-(4-Fluorophenyl)-N-{6-[(2-hydroxy-ethyl)-methyl-amino]-pyridin-3-ylmethyl}-2,2-dimethyl-propionamide] | 7.6 | 17.1
14 | Cc1ccc(OCCN(C)c2ccc(CN(C(=O)C(C)(C)C)c3ccc(F)cc3)cn2)nc1 [Compound 39, N-(4-Fluorophenyl)-2,2-dimethyl-N-(6-{methyl-[2-(5-methyl-pyridin-2-yloxy)-ethyl]-amino}-pyridin-3-ylmethyl)-propionamide] | 0.5 | 1
15 | Cc1ccc(OCCN(C)c2ccc(CN(C(=O)C(C)(C)C)c3ccc(F)cc3)cn2)nn1 [Compound 40, N-(4-Fluorophenyl)-2,2-dimethyl-N-(6-{methyl-[2-(6-methyl-pyridazin-3-yloxy)-ethyl]-amino}-pyridin-3-ylmethyl)-propionamide] | 11.2 | 21
16 | CCN(Cc1ccncc1)c1ccc(CN(C(=O)C(C)(C)C)c2ccc(F)cc2)cn1 [Compound 41, N-[6-(Ethyl-pyridin-4-ylmethyl-amino)-pyridin-3-ylmethyl]-N-(4-fluorophenyl)-2,2-dimethyl-propionamide] | 2 | 6.3
17 | CC(C)(C)C(=O)N(Cc1ccc(N2CCCC2)nc1)c1ccc(F)cc1 [Compound 42, N-(4-Fluorophenyl)-2,2-dimethyl-N-(6-pyrrolidin-1-yl-pyridin-3-ylmethyl)-propionamide] | 7.4 | 11.6
18 | CCC(C)(C)C(=O)N(Cc1ccc(N2CCN(S(C)(=O)=O)CC2)nc1)c1ccc(F)cc1 [Compound 43, N-(4-Fluorophenyl)-N-[6-(4-methanesulfonyl-piperazin-1-yl)-pyridin-3-ylmethyl]-2,2-dimethyl-butyramide] | 3 | 10.2
19 | CC(=O)N1CCN(c2ccc(CN(C(=O)C(C)(C)C)c3ccc(F)cc3)cn2)CC1 [Compound 44, N-[6-(4-Acetyl-piperazin-1-yl)-pyridin-3-ylmethyl]-N-(4-fluorophenyl)-2,2-dimethyl-propionamide] | 7.5 | 18.4
20 | CCOC(=O)c1cn(C(C)(C)C(=O)N(Cc2ccc(N(CC)CC)nc2)c2ccc(F)cc2)nn1 [Compound 45, 1-{1-[(6-Diethylamino-pyridin-3-ylmethyl)-(4-fluorophenyl)-carbamoyl]-1-methyl-ethyl}-1H-[1,2,3]triazole-4-carboxylic acid ethyl ester] | 2.5 | 10.6
21 | CN(CCOCc1cccnc1)c1ccc(CN(C(=O)C(C)(C)C)c2ccc(F)cc2)cn1 [Compound 47, N-(4-Fluorophenyl)-2,2-dimethyl-N-(6-{methyl-[2-(pyridin-3-ylmethoxy)-ethyl]-amino}-pyridin-3-ylmethyl)-propionamide] | 1.6 | 9.5
22 | CC(C)(C)C(=O)N(Cc1ccc(N2CCCC2CO)nc1)c1ccc(F)cc1 (stereo not shown) [Compound 48, N-(4-Fluorophenyl)-N-[6-(2-hydroxymethyl-pyrrolidin-1-yl)-pyridin-3-ylmethyl]-2,2-dimethyl-propionamide] | 4.2 | 19.8
23 | CC(C)(C)C(=O)N(Cc1ccc(N2CCC[C@H]2COc2ccccn2)nc1)c1ccc(F)cc1 [Compound 49, N-(4-Fluorophenyl)-2,2-dimethyl-N-{6-[2-(pyridin-2-yloxymethyl)-pyrrolidin-1-yl]-pyridin-3-ylmethyl}-propionamide] | 0.6 | 2.3
24 | CC(C)(C)C(=O)N(Cc1ccc(N2CC[C@H](O)C2)nc1)c1ccc(F)cc1 [Compound 51, N-(4-Fluorophenyl)-N-[6-(3-hydroxy-pyrrolidin-1-yl)-pyridin-3-ylmethyl]-2,2-dimethyl-propionamide] | 12.8 | 34
25 | CCN(CC)C1CCN(c2ccc(CN(C(=O)C(C)(C)C)c3ccc(F)cc3)cn2)C1 (stereo not shown) [Compound 52, N-[6-(3-Diethylamino-pyrrolidin-1-yl)-pyridin-3-ylmethyl]-N-(4-fluorophenyl)-2,2-dimethyl-propionamide] | 6.3 | 17.1
26 | CC(C)(C)C(=O)N(Cc1ccc(N2CCC(c3nc4ccccc4[nH]3)CC2)nc1)c1ccc(F)cc1 [Compound 53, N-[4-(1H-Benzoimidazol-2-yl)-3,4,5,6-tetrahydro-2H-[1,2′]bipyridinyl-5′-ylmethyl]-N-(4-fluorophenyl)-2,2-dimethyl-propionamide] | 0.3 | 0.6
27 | CCN(CC)c1ccc(CN(C(=O)C(C)(C)n2cc(CN(C)C)nn2)c2ccc(F)cc2)cn1 [Compound 54, N-(6-Diethylamino-pyridin-3-ylmethyl)-2-(4-dimethylaminomethyl-[1,2,3]triazol-1-yl)-N-(4-fluorophenyl)-isobutyramide] | 5.3 | 8.9
